Data taken from patent publication EP0174114A1, “Platinum complexes of ascorbic acid and ascorbic acid analogs” (priority 1984, dated 1986).
Where “and” joins values, the source holds several entries; their conditions need not be identical. Equal values may be shown once.

System: S180 ascites
Experiment: Screening for antitumor activity against S180 ascites (increase in life span, survivors)
Assay type: in vivo, female CFW Swiss mice
Experimental: The various Pt ascorbate analogs were tested for antitumor activity against S180 ascites in female CFW Swiss mice by the following procedure.
CFW mice, averaging 20 g, are immediately inspected and placed in newly prepared cages. On day zero the mice are inoculated with 0.2 ml of a freshly prepared saline suspension (0.15 M NaCl) containing […], or a total of 2 x 10^6 cells. This inoculum is freshly prepared using "transfer" mice which have been injected with tumor cells the previous week. This inoculum is the end product of a series of steps which involve (1) the removal of the cells from the peritoneal cavity of the sacrificed transfer mouse, (2) alternate centrifugation-washing (2-3 times with cold saline) to remove occasional blood and other undesirable components, and finally (3) dilution (1:3) of the packed cell volume with saline (the final centrifugation being carried out at 1,000 rpm for 2 min). A cell count is made on a 2,000--fold dilution of this 1:3 suspension by means of a Coulter Counter. A final dilution to 1 x 10^7 cells/ml is made based on the averaged count. On day 1, solutions of the test compounds are prepared and the mice injected, with each mouse of a set of six being injected with the same test compound at the same dose level. Also, on this day, two types of controls (6 mice/set) are employed: (1) Normal (1 set): 0.5 ml of the solvent medium used for the test compound, and (2) Positive control (1 set): a known anti-tumor agent (cis-[Pt(NH3)2cI2] in saline at 8 mg/kg), used to test the response to the biological system.
The effectiveness of a compound is measured in terms of the increase in life span (% ILS) of the test animals relative to the controls (calculated from the day of tumor inoculation, day zero). In order to standardize the test data and permit intercomparisons to be made, the day of evaluation is arbitrarily taken as that day corresponding to twice the mean life-span (or average day of death) of the normal controls. This sets a practical upper limit of 100% on the ILS attainable. For calculation purposes, survivors on the day of evaluation are considered to have died on that day. The % ILS is formulated as: [formula]
ILS values above 50% represent significant activity; those above 75% represent excellent activity.

[1] = dose 5 mg/kg, administered in HNO3 ascorbic acid
[2] = dose 10 mg/kg, administered in HNO3 ascorbic acid
[3] = dose 20 mg/kg, administered in HNO3 ascorbic acid
[4] = dose 40 mg/kg, administered in HNO3 ascorbic acid
[5] = dose 80 mg/kg, administered in HNO3 ascorbic acid
[6] = dose 160 mg/kg, administered in HNO3 ascorbic acid
[7] = dose 10 mg/kg, administered in water
[8] = dose 20 mg/kg, administered in water
[9] = dose 40 mg/kg, administered in water
[10] = dose 80 mg/kg, administered in water
[11] = dose 160 mg/kg, administered in water
[12] = dose 320 mg/kg, administered in water
[13] = dose 640 mg/kg, administered in water
[14] = dose 800 mg/kg, administered in water
[15] = dose 1280 mg/kg, administered in water
[16] = dose 1920 mg/kg, administered in water
[17] = dose 5 mg/kg, administered in water
[18] = dose 5 mg/kg, administered in water, injected day 1, 5 mg/kg
[19] = positive control of the same experiment, in saline at 8 mg/kg, 8 mg/kg
[20] = dose 320 mg/kg, administered in HNO3 ascorbic acid
[21] = dose 640 mg/kg, administered in HNO3 ascorbic acid

Compound | 30-Day Survivors [7] | %ILS [7] [%] | 30-Day Survivors [8] | %ILS [8] [%] | 30-Day Survivors [9] | %ILS [9] [%] | 30-Day Survivors [10] | %ILS [10] | 30-Day Survivors [11] | 30-Day Survivors [12] | %ILS [12] | %ILS [11] | other results
Pt(ethylenediamine)(ascorbate) [listing 1 of 2 here] | – | – | – | – | – | – | – | – | – | – | – | – | activity against Sarcoma 180 ascites tumors in comparison with the unacidified complex (after contact with an aqueous acid solution): enhanced activity; 30-Day Survivors [1]: 0/6; %ILS [1]: 3%; 30-Day Survivors [2]: 0/6; %ILS [2]: 27%; 30-Day Survivors [3]: 0/6; %ILS [3]: 45%; 30-Day Survivors [4]: 3/6; %ILS [4]: 75%; 30-Day Survivors [5]: 3/6; %ILS [5]: 93%; 30-Day Survivors [6]: 2/6; %ILS [6]: 70%
[Pt(R,R-trans-dach)(ascorbate)].3H2O [[Pt(R,R-trans-dach)-(ascorbate)]] | 0/6 | 9 | 0/6 | 6 | 0/6 | 9 | 0/6 | 15% and 7% | 0/6 and 0/5 | 3/6 | 65% and 55% | – | 30-Day Survivors [13]: 5/6; %ILS [13]: 100%; 30-Day Survivors [14]: 5/6; %ILS [14]: 72%; 30-Day Survivors [15]: 6/6; %ILS [15]: 100%
Pt(ethylenediamine)(ascorbate) [listing 2 of 2 here] | 0/6 | 4 | 0/6 | 6 | 0/6 | 22 | 0/6 | -2% | 0/6 | 0/6 | 24% | 10% | –
[Pt (cis-dach) (isoascorbate) [[Pt(cis-dach)-(isoascorbate)]] | 0/6 | 9 | 0/6 | 6 | 0/6 | 6 | 0/6 | 17% | 0/6 | 0/6 | 12% and 22% | 4% and 10% | 30-Day Survivors [13]: 2/6; %ILS [13]: 70%; 30-Day Survivors [14]: 2/6; %ILS [14]: 92%; 30-Day Survivors [15]: 3/6; %ILS [15]: 82%; 30-Day Survivors [16]: 0/6; %ILS [16]: 54%
Cis-[Pt(NH3)2(ascorbate)].2H2O [cis[Pt(NH3)2-(ascorbate)]] | 0/6 | -2 | 0/6 | 6 | 0/6 | -6 | 0/6 | -1% | 1/6 | 3/6 | 79% | 57% | –
Pt(cis-dach)(ascorbate)2·2H2O [[Pt(cis-dach)-(ascorbate)2]] | 0/6 | 21 | 0/6 | 12 | 0/6 | 29 | 0/6 | 60% | 5/6 | 1/6 | 68% | 97% | –
[Pt(cis-dach)(ascorbate)].3H2O [[Pt(cis-dach)-(ascorbate)] (Isomer VI)] | 0/6 | 23 | 0/6 | 26 | 0/6 | 22 | 6/6 and 0/6 | – | 4/6 and 3/6 | 5/6 | 93% | 99% and 77% | 30-Day Survivors [17]: 0/6; %ILS [18]: 15%
[Pt(cis-dach)(ascorbate)].3H2O [[Pt(cis-dach)-(ascorbate)] (Isomer VII)] | 0/6 | 20 | 0/6 | 20 | 0/6 | 43 | 1/6 and 2/6 | 71% and 79% | 5/6 and 3/6 | 0/6 | -59% | 98% and 69% | 30-Day Survivors [17]: 0/6; %ILS [18]: 12%
N.N.[Cl][Pt][Cl] [Control, cis-[Pt(NH3)2cI2], reference compound] | – | – | – | – | – | – | – | – | – | – | – | – | Control 30-Day Survivors [19]: 6/6 and 1/6 and 4/6 and 3/6 and 2/6 and 0/6 and 5/6; Control %ILS [19]: 98% and 67% and 77% and 86% and 79% and 76% and 71% and 94%
Pt(trans-R,R-dach)(ascorbate) [Pt(trans-R,R-dach) (ascorbate) (Ex. 12)] | – | – | – | – | – | – | – | – | – | – | – | – | 30-Day Survivors [3]: 3/6; %ILS [3]: 67%; 30-Day Survivors [4]: 3/6; %ILS [4]: 83%; 30-Day Survivors [5]: 4/6; %ILS [5]: 82%; 30-Day Survivors [6]: 0/6; %ILS [6]: -75%; 30-Day Survivors [20]: 0/6; %ILS [20]: -78%; 30-Day Survivors [21]: 0/6; %ILS [21]: -94%
